Measured values from patent US10870647B2, “Imidazopyridine derivative, method for preparing same, and pharmaceutical composition containing same as active ingredient for preventing or treating cancer” (DAEGU-GYEONGBUK MEDICAL INNOVATION FOUNDATION, priority 2016, dated 2020).

Assays:
Assay in all cases: Kinase selectivity, scanMAX Kinase assay panel (DiscoverX), % control at 1 uM
Assay type in all cases: binding
[1] = biological target: T1, scanMAX Kinase assay panel (Homo sapiens, UniProt P35916); details: FLT4; 1 uM; read-out: Percent Control (%)
T1 construct: purchased DiscoverX
Method in brief: (§1)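 A single concentration of 1 uM, in DMSO, is applied across the kinase panel. Activity against an individual enzyme is assigned where % control is less than 35.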

[2] = biological target: T2, scanMAX Kinase assay panel (Homo sapiens, UniProt O75716); details: STK16; 1 uM; read-out: Percent Control (%)
T2 construct: purchased DiscoverX
Method in brief: as §1

[3] = biological target: T3, scanMAX Kinase assay panel (Homo sapiens, UniProt Q6P3R8); details: NEK5; 1 uM; read-out: Percent Control (%)
T3 construct: purchased DiscoverX
T3 sequence (Q6P3R8 1-708): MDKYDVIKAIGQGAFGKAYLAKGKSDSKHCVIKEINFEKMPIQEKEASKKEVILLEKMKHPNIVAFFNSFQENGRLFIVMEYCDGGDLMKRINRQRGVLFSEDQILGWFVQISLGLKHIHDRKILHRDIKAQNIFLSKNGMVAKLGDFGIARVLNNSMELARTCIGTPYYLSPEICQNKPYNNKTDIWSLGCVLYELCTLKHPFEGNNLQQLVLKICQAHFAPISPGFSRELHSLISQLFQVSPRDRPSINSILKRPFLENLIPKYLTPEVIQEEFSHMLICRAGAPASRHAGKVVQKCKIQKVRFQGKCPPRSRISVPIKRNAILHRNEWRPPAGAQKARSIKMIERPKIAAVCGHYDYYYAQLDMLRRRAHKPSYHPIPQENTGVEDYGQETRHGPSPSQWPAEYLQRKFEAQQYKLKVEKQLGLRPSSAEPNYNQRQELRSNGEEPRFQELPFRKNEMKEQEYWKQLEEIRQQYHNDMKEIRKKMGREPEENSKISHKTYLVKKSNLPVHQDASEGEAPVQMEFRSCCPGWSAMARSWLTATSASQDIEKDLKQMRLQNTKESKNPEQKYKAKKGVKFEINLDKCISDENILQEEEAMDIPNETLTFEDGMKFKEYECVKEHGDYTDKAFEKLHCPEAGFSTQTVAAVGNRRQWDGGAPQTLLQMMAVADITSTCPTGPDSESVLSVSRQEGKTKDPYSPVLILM
Method in brief: as §1

[4] = biological target: T4, scanMAX Kinase assay panel (Homo sapiens, UniProt Q59H18); details: TNNI3K; 1 uM; read-out: Percent Control (%)
T4 construct: purchased DiscoverX
T4 sequence (Q59H18 1-835): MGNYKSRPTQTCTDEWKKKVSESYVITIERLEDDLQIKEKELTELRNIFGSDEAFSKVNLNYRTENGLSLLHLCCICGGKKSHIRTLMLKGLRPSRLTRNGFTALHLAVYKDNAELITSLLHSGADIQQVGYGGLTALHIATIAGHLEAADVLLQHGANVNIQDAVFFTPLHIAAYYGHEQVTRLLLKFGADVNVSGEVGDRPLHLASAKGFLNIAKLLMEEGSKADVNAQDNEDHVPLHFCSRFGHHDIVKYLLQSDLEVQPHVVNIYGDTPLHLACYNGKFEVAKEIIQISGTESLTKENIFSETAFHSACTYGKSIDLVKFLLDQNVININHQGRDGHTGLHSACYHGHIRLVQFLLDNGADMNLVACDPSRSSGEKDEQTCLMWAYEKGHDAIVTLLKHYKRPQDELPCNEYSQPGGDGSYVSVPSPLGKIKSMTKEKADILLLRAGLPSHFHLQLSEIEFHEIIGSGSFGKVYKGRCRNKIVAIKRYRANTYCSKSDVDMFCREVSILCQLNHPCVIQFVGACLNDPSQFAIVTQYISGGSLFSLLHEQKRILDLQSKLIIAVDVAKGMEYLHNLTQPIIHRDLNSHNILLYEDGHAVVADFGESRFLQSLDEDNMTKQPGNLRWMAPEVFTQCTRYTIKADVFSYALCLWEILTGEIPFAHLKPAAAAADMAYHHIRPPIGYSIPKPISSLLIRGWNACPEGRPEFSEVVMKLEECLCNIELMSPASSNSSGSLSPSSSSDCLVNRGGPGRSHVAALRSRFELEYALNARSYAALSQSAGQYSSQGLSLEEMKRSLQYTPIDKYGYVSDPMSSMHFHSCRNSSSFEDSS
Method in brief: as §1

[5] = biological target: T5, scanMAX Kinase assay panel (Homo sapiens, UniProt Q9NWZ3); details: IRAK4; 1 uM; read-out: Percent Control (%)
T5 construct: purchased DiscoverX
T5 sequence (Q9NWZ3 1-460): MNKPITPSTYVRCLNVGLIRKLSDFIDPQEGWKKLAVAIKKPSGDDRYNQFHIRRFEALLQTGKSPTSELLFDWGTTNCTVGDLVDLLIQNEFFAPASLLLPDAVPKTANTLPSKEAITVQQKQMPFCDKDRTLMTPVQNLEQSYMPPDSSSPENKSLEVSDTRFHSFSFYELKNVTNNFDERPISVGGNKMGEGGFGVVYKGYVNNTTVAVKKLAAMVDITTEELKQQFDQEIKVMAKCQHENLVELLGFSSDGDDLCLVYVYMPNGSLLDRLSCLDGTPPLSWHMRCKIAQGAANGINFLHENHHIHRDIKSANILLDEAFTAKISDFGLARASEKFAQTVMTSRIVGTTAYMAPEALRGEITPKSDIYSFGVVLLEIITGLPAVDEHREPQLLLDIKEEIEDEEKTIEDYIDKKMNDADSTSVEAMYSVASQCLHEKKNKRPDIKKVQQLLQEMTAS
Method in brief: as §1

T2 sequence (O75716 whole entry): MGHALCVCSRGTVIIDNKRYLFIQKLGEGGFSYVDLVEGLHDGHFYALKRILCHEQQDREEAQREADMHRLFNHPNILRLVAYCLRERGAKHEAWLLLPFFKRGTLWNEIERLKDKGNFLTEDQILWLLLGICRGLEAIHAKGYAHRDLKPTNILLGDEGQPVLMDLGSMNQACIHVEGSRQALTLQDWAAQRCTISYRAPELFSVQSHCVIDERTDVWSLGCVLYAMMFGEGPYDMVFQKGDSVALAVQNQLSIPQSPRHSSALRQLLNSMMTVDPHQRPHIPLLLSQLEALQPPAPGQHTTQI
T1 sequence (P35916 25-1363): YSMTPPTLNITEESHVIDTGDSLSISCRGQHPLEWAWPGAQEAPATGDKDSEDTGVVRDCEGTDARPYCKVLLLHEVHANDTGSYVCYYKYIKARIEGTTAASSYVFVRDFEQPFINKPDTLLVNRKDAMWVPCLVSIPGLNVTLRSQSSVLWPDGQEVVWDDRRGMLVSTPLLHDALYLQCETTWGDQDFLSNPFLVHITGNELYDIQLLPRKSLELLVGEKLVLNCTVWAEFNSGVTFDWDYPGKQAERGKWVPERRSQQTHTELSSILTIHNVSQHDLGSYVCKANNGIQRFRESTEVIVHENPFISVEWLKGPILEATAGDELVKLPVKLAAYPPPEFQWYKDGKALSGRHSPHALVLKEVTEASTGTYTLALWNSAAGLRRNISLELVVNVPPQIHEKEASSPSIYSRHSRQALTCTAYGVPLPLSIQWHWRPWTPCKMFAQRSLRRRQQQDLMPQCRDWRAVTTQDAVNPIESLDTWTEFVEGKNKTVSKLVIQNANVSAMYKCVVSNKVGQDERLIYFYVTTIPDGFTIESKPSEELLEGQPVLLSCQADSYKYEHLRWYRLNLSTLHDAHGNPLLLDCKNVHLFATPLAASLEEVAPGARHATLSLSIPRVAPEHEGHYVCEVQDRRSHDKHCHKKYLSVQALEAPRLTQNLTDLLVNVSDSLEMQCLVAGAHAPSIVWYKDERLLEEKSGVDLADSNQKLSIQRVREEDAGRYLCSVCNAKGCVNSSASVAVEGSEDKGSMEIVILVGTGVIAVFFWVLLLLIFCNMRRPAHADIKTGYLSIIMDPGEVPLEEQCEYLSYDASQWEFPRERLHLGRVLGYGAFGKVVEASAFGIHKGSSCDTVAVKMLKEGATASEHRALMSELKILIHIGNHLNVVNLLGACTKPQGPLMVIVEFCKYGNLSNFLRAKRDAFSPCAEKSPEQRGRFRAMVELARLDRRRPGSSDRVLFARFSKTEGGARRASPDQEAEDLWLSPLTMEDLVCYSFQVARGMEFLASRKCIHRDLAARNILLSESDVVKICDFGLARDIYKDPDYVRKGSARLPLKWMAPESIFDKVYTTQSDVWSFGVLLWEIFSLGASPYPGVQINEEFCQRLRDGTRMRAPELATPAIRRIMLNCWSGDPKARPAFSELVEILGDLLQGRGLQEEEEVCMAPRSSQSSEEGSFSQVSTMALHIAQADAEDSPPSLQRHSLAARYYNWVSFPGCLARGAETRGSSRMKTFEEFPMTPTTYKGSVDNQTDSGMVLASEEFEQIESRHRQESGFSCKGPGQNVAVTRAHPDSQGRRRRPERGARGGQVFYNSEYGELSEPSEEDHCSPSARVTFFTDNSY

Row | Compound | remaining binding at 1 µM [1] [%] | remaining binding at 1 µM [2] [%] | remaining binding at 1 µM [3] [%] | remaining binding at 1 µM [4] [%] | remaining binding at 1 µM [5] [%]
1 | Cc1ccc(C(=O)Nc2ccc(CN3CCN(C)CC3)c(C(F)(F)F)c2)cc1C#Cc1cnc2c(Nc3cnn(C)c3)cccn12 [Example 1, 4-methyl-3-((8-((1-methyl-1H-pyrazol-4-yl)amino)imidazo[1,2-a]pyridin-3-yl)ethynyl)-N-(4-((4-methylpiperazin-1-yl)methyl)-3-(trifluoromethyl)phenyl)benzamide] | 1 | 38 | 2 | 0 | 22
2 | Cc1cn(-c2cc(NC(=O)c3ccc(C)c(C#Cc4cnc5c(Nc6cnn(C)c6)cccn45)c3)cc(C(F)(F)F)c2)cn1 [Example 12, 4-methyl-N-(3-(4-methyl-1H-imidazol-1-yl)-5-(trifluoromethyl)phenyl)-3-((8-((1-methyl-1H-pyrazol-4-yl)amino)imidazo[1,2-a]pyridin-3-yl)ethynyl)benzamide] | 6 | 70 | 86 | 25 | 81
3 | Cc1ccc(NC(=O)C2(C(=O)Nc3ccc(F)cc3)CC2)cc1C#Cc1cnc2c(Nc3cnn(C(C)C)c3)cccn12 [Example 78] | 26 | 99 | 100 | 93 | 100
